Among the data in patent US20250197387A1, “BCL-XL DEGRADERS AND USES THEREOF” (Kymera Therapeutics, Inc., priority 2021, published 2025) are Dmax, DC50 and IC50 values, retold here.

Each structure is given as a SMILES string.

Assay type in all cases: cell-based
The target of assay [1] is T1, BCL-XL (Homo sapiens, UniProt Q07817).
T1 construct: endogenous in cells; host or cells: MOLT-4
The assay is described as follows: Bcl-xL ELISA degradation in MOLT-4 cells, 6 h. The settings on record: for DC50: read-out: Bcl-xL ELISA in MOLT-4 degradation 6 h: Mean external-Abs DC50. Here is the method: The letter codes for BCL-XL DC50 include: A (<0.01 μM); B (0.01-0.1 μM); C (>[…]); D (>0.5-1.0 μM); and E (>1.0 μM). The letter codes for Dmax % include A (>75%); B (50 to 75%); C (<50%).
In general terms: An ELISA detects its analyte on a solid surface through an enzyme-linked reagent.

The test system of assay [2] is MOLT-4 cells. The assay is described as follows: CTG (CellTiter-Glo) cell viability assay, MOLT-4. The settings on record: Homo sapiens, MOLT-4, 72 h, 3 day incubation, read-out: CTG Cell Viability Assay - MOLT-4 3 day: Average external-IC50. An outline of the steps: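 Nine-point 1:3 compound series topping at 10 μM (0.2% DMSO final) applied for 3 days to 10,000 MOLT-4 or Caki-2 cells per well, 37° C., 5% CO2. CellTiter-Glo luminescence read after 10 min at room temperature; three-parameter fit gave IC50.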
(ATP-based viability assays read luminescence as a measure of living cells.)

For assay [3], the system named is Caki-2 cells. Kind of assay: CTG (CellTiter-Glo) cell viability assay, Caki-2. The settings on record: Homo sapiens, 72 h, 3 day incubation, read-out: CTG Chempartner - Caki-2 3 day: Average external-IC50. Here is the method: Compound-mediated viability effect on MOLT-4 and Caki-2 was quantitatively determined using the CellTiter-Glo® Luminescent Cell Viability Assay kit from Promega (Catalog number G7570) following manufacturer's recommended procedures. Briefly, MOLT-4 and Caki-2 cells were seeded into 384 well plates (Grenier Bio-One, Catalog number 781080) with a density of 10,000 cells per well. Compounds were then added to the assay plate with final top concentration of 10 μM and 1:3 dilution series with total of 9 doses. The final DMSO concentration is normalized to 0.2%. The assay plates were incubated at 37° C., for 3 days under 5% CO2. Then the assay plate was equilibrated at room temperature for 10 minutes. To determine cell viability, 30 uL CellTiter Glo reagent was added to each well and the assay plate was centrifuged at 1000 rpm for 30 second, incubated at room temperature for 10 min, and analyzed by detecting the luminescence using a multimode plate reader (EnVision 2105, PerkinElmer). The data was then analyzed by software Prism 7.0 from GraphPad and the dose response curves are fit using a three-parameter logistic equation to calculate IC50.
The letter codes for MOLT-4 IC50 include: A (<0.1 μM); B (0.1-1.0 μM); C (>1.0-3.0 μM); and D (>3.0 μM). The letter codes for Caki-2 IC50 include: A (<0.1 μM); B (0.1-1.0 μM); C (>1.0-10.0 μM); and D (>10.0 μM).

T1 sequence (Q07817 whole entry): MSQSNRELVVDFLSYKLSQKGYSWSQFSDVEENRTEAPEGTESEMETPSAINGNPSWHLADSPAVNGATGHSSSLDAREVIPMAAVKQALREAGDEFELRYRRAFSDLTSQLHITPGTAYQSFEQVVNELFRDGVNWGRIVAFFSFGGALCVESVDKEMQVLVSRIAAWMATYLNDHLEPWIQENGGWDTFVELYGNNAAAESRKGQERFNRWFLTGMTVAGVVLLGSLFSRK

As for `C#Cc1ccc(CNC(=O)[C@@H]2C[C@@H](O)CN2C(=O)[C@@H](NC(=O)C2CN(CCS(=O)(=O)NC(=O)c3nc(N(C)c4cc(C)c(Nc5nc6ccccc6s5)nn4)ccc3-c3cnn(CC45CC6CC(CC(C6)C4)C5)c3C)C2)C(C)(C)C)cc1` [I-433], in assay [1], the Dmax is more than 75%. Moreover, the DC50 in assay [1] lay in the range of 100 to 500 nM. Moreover, the IC50 in assay [2] was 100 to 1000 nM; in assay [3] it was more than 10000 nM.
With `Cc1cc(N(C)c2ccc(-c3cnn(CC45CC6CC(CC(C6)C4)C5)c3C)c(C(=O)NS(=O)(=O)CCCCCC(=O)N[C@H](C(=O)N3C[C@H](O)C[C@H]3C(=O)NCc3ccc(-c4scnc4C)cc3)C(C)(C)C)n2)nnc1Nc1nc2cccnc2s1` [I-451], in assay [1], the Dmax was more than 75% and the DC50 was in the range of 10 to 100 nM. The IC50 in assay [2] lay in the range of 100 to 1000 nM. Also, the IC50 in assay [3] was more than 10000 nM.
The molecule `Cc1ncsc1-c1ccc([C@H](C)NC(=O)[C@@H]2C[C@@H](O)CN2C(=O)[C@@H](c2cc(OC3CCN(CCNC(=O)c4nc(N5CCc6cccc(C(=O)Nc7nc8ccccc8s7)c6C5)ccc4-c4cnn(CC5CCCCC5)c4C)CC3)no2)C(C)C)cc1` [I-291] displayed a Dmax in assay [1] of less than 50%. Besides, in assay [1], the DC50 is 500 to 1000 nM. The values for the IC50 in assay [2] and in assay [3] were 1000 to 3000 nM and 1000 to 10000 nM, respectively.
`Cc1ncsc1-c1ccc(CNC(=O)[C@@H]2C[C@@H](O)CN2C(=O)[C@@H](NC(=O)CCc2ccc(S(=O)(=O)NC(=O)c3nc(N4CCc5cccc(C(=O)Nc6nc7ccccc7s6)c5C4)ccc3-c3cnn(CC4CCCCC4)c3C)cn2)C(C)(C)C)cc1` [I-342]: the Dmax in assay [1] is more than 75%. Besides, the DC50 in assay [1] was 100 to 500 nM. Moreover, the IC50 was 100 to 1000 nM in assay [2] and more than 10000 nM in assay [3].
`Cc1ncsc1-c1ccc([C@H](C)NC(=O)[C@@H]2C[C@@H](O)CN2C(=O)[C@@H](NC(=O)CCS(=O)(=O)NC(=O)c2nc(N3CCc4cccc(C(=O)Nc5nc6ccccc6s5)c4C3)ccc2-c2cnn(CC3CCCCC3)c2C)C(C)(C)C)cc1` [I-311] returned a Dmax in assay [1] of more than 75%. In addition, the half-maximal degradation concentration (DC50) in assay [1] lay in the range of 100 to 500 nM. Also, the IC50 is less than 100 nM in assay [2] and 1000 to 10000 nM in assay [3].
As to `C#Cc1ccc(CNC(=O)[C@@H]2C[C@@H](O)CN2C(=O)[C@@H](NC(=O)CCCCCS(=O)(=O)NC(=O)c2nc(N3CCc4cccc(C(=O)Nc5nc6cccnc6s5)c4C3)ccc2-c2cnn(CC3CCCCC3)c2C)C(C)(C)C)cc1` [I-352], in assay [1], the Dmax was more than 75% and the DC50 was less than 10 nM. Besides, the IC50 in assay [2] is less than 100 nM. In addition, the IC50 in assay [3] was more than 10000 nM.
`Cc1c(-c2ccc(N3CCc4cccc(C(=O)Nc5nc6ccccc6s5)c4C3)nc2C(=O)NS(=O)(=O)CCCCCc2ccc3c(c2)n(C)c(=O)n3C2CCC(=O)NC2=O)cnn1CC1CCCCC1` (stereo not shown) [I-425]: in assay [1], the Dmax was more than 75% and the DC50 was less than 10 nM. Moreover, the IC50 in assay [2] is less than 100 nM. Further, the IC50 in assay [3] fell in the range of 1000 to 10000 nM.
Take `Cc1ncsc1-c1ccc(CNC(=O)[C@@H]2C[C@@H](O)CN2C(=O)[C@@H](NC(=O)[C@@H]2CCN(c3ccc(S(=O)(=O)NC(=O)c4nc(N5CCc6cccc(C(=O)Nc7nc8ccccc8s7)c6C5)ccc4-c4cnn(CC5CCCCC5)c4C)cc3)C2)C(C)(C)C)cc1` [I-410]: the Dmax in assay [1] was more than 75%. Also, the DC50 in assay [1] lay within 10 to 100 nM. Further, the 50% inhibitory concentration (IC50) is less than 100 nM in assay [2] and more than 10000 nM in assay [3].
In the case of `Cc1cc(N(C)c2ccc(-c3cnn(CC45CC6CC(CC(C6)C4)C5)c3C)c(C(=O)NS(=O)(=O)CCCCCC(=O)N[C@H](C(=O)N3C[C@H](O)C[C@H]3C(=O)N[C@H](C)c3ccc4c(c3)c(C)nn4C)C(C)(C)C)n2)nnc1Nc1nc2ccccc2s1` (single isomer, unassigned) [I-492], in assay [1], the Dmax was more than 75% and the DC50 lay in the range of 10 to 100 nM. Also, the 50% inhibitory concentration (IC50) in assay [2] lay in the range of 100 to 1000 nM. Also, the IC50 in assay [3] is more than 10000 nM.
On the same counts, the results for `C#Cc1ccc([C@H](C)NC(=O)[C@@H]2C[C@@H](O)CN2C(=O)[C@@H](NC(=O)CCCCCS(=O)(=O)NC(=O)c2nc(N3CCc4cccc(C(=O)Nc5nc6cccnc6s5)c4C3)ccc2-c2cnn(CC3CCCCC3)c2C)C(C)(C)C)c(O)c1` [I-479] are more than 75%, less than 10 nM, less than 100 nM and more than 10000 nM.

One may read the Dmax as the largest share of the target that was removed. Low values mean shallow degradation, high ones deep degradation. As a reminder, the DC50 is the concentration at which degradation of the target reaches its halfway point. In general, IC50 refers to the concentration at which inhibition is half-maximal.
